According to the supplement of paper PMC10307832:

Assays:
Experiment in all cases: relative viability (nuclei count vs DMSO), 5 days (fraction); higher = more cells survive
Dactolisib + Vorinostat = compound: Cn1c(=O)n(-c2ccc(C(C)(C)C#N)cc2)c2c3cc(-c4cnc5ccccc5c4)ccc3ncc21 [Dactolisib] + O=C(CCCCCCC(=O)Nc1ccccc1)NO [Vorinostat] (partner 1 µM)
In short: (§1)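 For relative viability, nuclei counts in treated wells were divided by those in vehicle wells. Lung cancer cell lines had been pin-tool dosed in 1536-well plates the day after seeding and cultured for 5 days, then fixed and stained in one step (final 0.05% Triton X-100, 1% formaldehyde, 1 ug/ml Hoechst) and imaged at 4×. Doses were one drug alone or a fixed anchor-drug dose plus five library-drug doses (not always all listed) in √10 steps, and values are duplicate-plate medians.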

AZ505 + Phenformin = compound: C1CCC(CC1)N(CCNCCC2=C3C(=C(C=C2)O)NC(=O)CO3)C(=O)CCNCCC4=CC(=C(C=C4)Cl)Cl [AZ505] + N=C(N)NC(=N)NCCc1ccccc1 [Phenformin] (partner 250 µM)
In short: as §1

Dactolisib + Lapatinib = compound: Cn1c(=O)n(-c2ccc(C(C)(C)C#N)cc2)c2c3cc(-c4cnc5ccccc5c4)ccc3ncc21 [Dactolisib] + CS(=O)(=O)CCNCc1ccc(-c2ccc3ncnc(Nc4ccc(OCc5cccc(F)c5)c(Cl)c4)c3c2)o1 [Lapatinib] (partner 2 µM)
In short: as §1

AZ505 + Vorinostat = compound: C1CCC(CC1)N(CCNCCC2=C3C(=C(C=C2)O)NC(=O)CO3)C(=O)CCNCCC4=CC(=C(C=C4)Cl)Cl [AZ505] + O=C(CCCCCCC(=O)Nc1ccccc1)NO [Vorinostat] (partner 1 µM)
In short: as §1

Row | Cell Line | relative viability (Dactolisib + Vorinostat; first compound 0.002 µM) | relative viability (Dactolisib + Vorinostat; first compound 0.006325 µM) | relative viability (Dactolisib + Vorinostat; first compound 0.02 µM) | relative viability (Dactolisib + Vorinostat; first compound 0.06325 µM) | relative viability (Dactolisib + Vorinostat; first compound 0.2 µM) | relative viability (AZ505 + Phenformin; first compound 0.08 µM) | relative viability (AZ505 + Phenformin; first compound 0.253 µM) | relative viability (AZ505 + Phenformin; first compound 0.8 µM) | relative viability (AZ505 + Phenformin; first compound 8 µM) | relative viability (Dactolisib + Lapatinib; first compound 0.002 µM) | relative viability (Dactolisib + Lapatinib; first compound 0.006325 µM) | relative viability (Dactolisib + Lapatinib; first compound 0.02 µM) | relative viability (Dactolisib + Lapatinib; first compound 0.06325 µM) | relative viability (Dactolisib + Lapatinib; first compound 0.2 µM) | relative viability (AZ505 + Vorinostat; first compound 0.08 µM) | relative viability (AZ505 + Vorinostat; first compound 0.253 µM) | relative viability (AZ505 + Vorinostat; first compound 0.8 µM) | relative viability (AZ505 + Vorinostat; first compound 2.53 µM) | relative viability (AZ505 + Vorinostat; first compound 8 µM) | relative viability (AZ505 + Phenformin; first compound 2.53 µM)
1 | NCI-H1793 | 0.794 | 0.358 | 0.293 | 0.205 | 0.197 | 0.248 | 0.338 | 0.454 | 0.368 | 0.631 | 0.409 | 0.325 | 0.195 | 0.242 | 0.637 | 0.653 | 0.641 | 0.898 | 0.806 | –
2 | NCI-H2023 | 0.305 | 0.479 | 0.439 | 0.098 | 0.11 | 0.379 | 0.449 | 0.405 | 0.31 | 0.282 | 0.615 | 0.597 | 0.127 | 0.137 | 0.57 | 0.631 | 0.63 | 0.588 | 0.835 | 0.442
3 | COR-L 105 | 0.677 | 0.88 | 0.828 | 0.402 | 0.394 | 0.451 | 0.454 | 0.547 | 0.583 | 0.311 | 0.355 | 0.363 | 0.267 | 0.35 | 0.778 | 0.87 | 0.86 | 0.902 | 0.89 | 0.473
4 | RERF-LC-KJ | 0.683 | 0.699 | 0.707 | 0.452 | 0.542 | 0.393 | 0.436 | 0.394 | 0.358 | 0.901 | 0.823 | 0.829 | 0.53 | 0.418 | 0.616 | 0.689 | 0.564 | 0.672 | 0.669 | 0.348
5 | LXF-289 | 0.879 | 0.789 | 0.741 | 0.815 | 0.565 | 0.488 | 0.491 | 0.512 | 0.514 | 0.92 | 0.906 | 0.916 | 0.884 | 0.731 | 0.807 | 0.787 | 0.808 | 0.703 | 0.787 | 0.509
6 | PC-14 | 0.767 | 0.681 | 0.417 | 0.155 | 0.163 | 0.519 | 0.328 | 0.573 | 0.668 | 0.33 | 0.347 | 0.318 | 0.186 | 0.141 | 0.527 | 0.79 | 0.659 | 0.688 | 0.761 | 0.482
7 | NCI-H650 | 0.414 | 0.501 | 0.469 | 0.306 | 0.179 | 0.443 | 0.389 | 0.468 | 0.457 | 0.91 | 1 | 0.691 | 0.55 | 0.452 | 0.395 | 0.425 | 0.348 | 0.567 | 0.556 | 0.509
8 | NCI-H1666 | 1.09 | 0.977 | 0.969 | 0.922 | 0.87 | 0.56 | 0.599 | 0.587 | 0.483 | 0.723 | 0.559 | 0.691 | 0.318 | 0.391 | 1.01 | 1.01 | 0.962 | 1.03 | 1.12 | 0.557
9 | NCI-H2085 | 0.801 | 0.742 | 0.712 | 0.363 | 0.329 | 0.68 | 0.613 | 0.664 | 0.694 | 0.798 | 0.657 | 0.659 | 0.359 | 0.337 | 0.732 | 0.721 | 0.675 | 0.802 | 0.823 | 0.677
10 | NCI-H1734 | 0.612 | 0.705 | 0.632 | 0.325 | 0.258 | 0.393 | 0.351 | 0.402 | 0.425 | 1.02 | 1 | 0.817 | 0.342 | 0.378 | 0.751 | 0.842 | 0.731 | 0.832 | 0.773 | 0.406
11 | NCI-H2126 | 0.856 | 0.763 | 0.594 | 0.427 | 0.426 | 0.466 | 0.537 | 0.491 | 0.538 | 0.826 | 0.799 | 0.745 | 0.641 | 0.476 | 0.724 | 0.682 | 0.751 | 0.696 | 0.757 | 0.526
12 | EMC-BAC-2 | 0.492 | 0.442 | 0.353 | 0.266 | 0.219 | 0.497 | 0.593 | 0.496 | 0.487 | 0.921 | 0.856 | 0.889 | 0.703 | 0.604 | 0.486 | – | 0.512 | 0.547 | 0.722 | 0.508
13 | NCI-H1993 | 0.849 | 0.54 | 0.537 | 0.481 | 0.284 | 0.472 | 0.426 | 0.546 | 0.478 | 0.784 | 0.714 | 0.843 | 0.601 | 0.651 | 0.689 | 0.741 | 0.994 | 0.884 | 0.977 | 0.56
14 | NCI-H520 | 0.747 | 0.596 | 0.416 | 0.212 | 0.151 | 0.556 | 0.49 | 0.683 | 0.529 | 0.888 | 0.753 | 0.655 | 0.221 | 0.128 | 0.594 | 0.847 | 0.648 | 0.731 | 0.781 | 0.825
15 | NCI-H647 | 0.369 | 0.308 | 0.265 | 0.123 | 0.0977 | 0.574 | 0.314 | 0.479 | 0.702 | 0.912 | 0.799 | 0.646 | 0.184 | 0.169 | 0.446 | 0.747 | 0.529 | 0.583 | 1.06 | 0.488
